# Counter-ions that a name gives are not always drawn.
# Legend:
# [1] = test system: Human-derived histiocyte lymphoma (U937/CCR2); assay: Leukocyte migration inhibitory activity (MCP-1 induced migration, CHEMOTAXICELL); type: cell-based; settings: U937/CCR2, MCP-1, 1 hr; for inhibition at 0.3 µM: test compound 0.3 μM
# Method: Human-derived histiocyte lymphoma (U937/CCR2), in which mouse-derived CCR2 had been highly expressed, was suspended in a 0.1% BSA-containing RPMI 1640 medium, to which a test compound had been added (5×10^6/ml), and the suspension was incubated for 20 min. A chemical solution (500 μl) (0.1% BSA-containing RPMI 1640 medium DMSO 1%), to which an MCP-1 ligand (1 μM) and the test compound had been added, was added to a 24-well plate. CHEMOTAXICELL was put thereon, and 200 μl of the cell suspension was added to the top layer, followed by migration under 5% carbon dioxide at 37° C. for one hr. The number of cells, which had migrated to the lower chamber, was counted with a particle count analyzer (CDA-500, SYSMEX CORPORATION), and the percentage migration inhibition was calculated by the following equation; Migration inhibition (%)={1−(number of migrated cells in the presence of test compound/number of migrated cells in the absence of test compound)}×100
# [2] = target: Rho kinase (fused protein of bovine Rho kinase catalyst region and glutathione S-transferase) (Bos taurus, UniProt Q28021); assay: Rho kinase inhibitory activity (phosphorylation of S6 231–239 substrate, γ32P-ATP); type: biochemical; settings: concentration inhibiting substrate phosphorylation by 50%
# Chain of Rho kinase (fused protein of bovine Rho kinase catalyst region and glutathione S-transferase) (Q28021 92-354 limits assumed): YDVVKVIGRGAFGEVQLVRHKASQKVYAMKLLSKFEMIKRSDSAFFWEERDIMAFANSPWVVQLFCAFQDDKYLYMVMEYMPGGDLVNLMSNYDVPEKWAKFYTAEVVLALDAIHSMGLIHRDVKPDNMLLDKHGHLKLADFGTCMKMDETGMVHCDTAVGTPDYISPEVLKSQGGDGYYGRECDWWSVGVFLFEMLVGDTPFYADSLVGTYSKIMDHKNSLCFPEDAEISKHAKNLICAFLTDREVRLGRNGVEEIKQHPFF
# Method: This permits the substrate to be labeled with the radioisotope.
# Thereafter, the substrate was adsorbed to a filter paper. ATP was washed away with a phosphoric acid solution, and the amount of the phosphorylated substrate was then measured with a liquid scintillation counter.
# [3] = Homo sapiens, U-937, 1 h, test compound 1 μM, read-out: Migration inhibition (%) ± SEM
# [4] = Homo sapiens, U-937, 1 h, read-out: Migration inhibition (%) ± SEM
# [5] = Homo sapiens, U-937, 1 h, test compound 3 μM, read-out: Migration inhibition (%) ± SEM
smiles,measurement,setting,value
"Fc1cc(F)c(CN2CCCC(Nc3ccc4[nH]ncc4c3)C2)c(F)c1 (stereo not drawn) [Example 282, N-(1H-5-indazolyl)-N-[1-(2,4,6-trifluorobenzyl)-3-piperidyl]amine]",inhibition at 1 µM,[1]; [3],29.9 ± 4.1%
"c1ccc(CN2CCC(Nc3ccc4[nH]ncc4c3)C2)cc1 (stereo not drawn) [Example 146.HCl, N-(1-Benzyltetrahydro-1H-pyrrolyl)-N-(1H-5-indazolyl)amine]",Migration inhibition (%) ± SEM,"[1]; test compound 3 μM, 3 µM",74.5 ± 1.7%
same,Migration inhibition (%) ± SEM,"[1]; test compound 30 μM, 30 µM",97.9 ± 1.0%
"COC(=O)C(c1ccccc1)N1CCCC(Nc2ccc3[nH]ncc3c2)C1 (stereo not drawn) [Example 221, methyl 2-[3-(1H-5-indazolylamino)piperidino]-2-phenylacetate]",inhibition at 0.03 µM,"[1]; Homo sapiens, U-937, 1 h, test compound 0.03 μM, read-out: Migration inhibition (%) ± SEM",27.5 ± 33.6%
same,inhibition at 0.3 µM,[1]; [4],90.8 ± 11%
"c1cc(NC2CCC(NC3CC3)CC2)c2ccncc2c1 (stereo not drawn) [262 (syn), N1-Cyclopropyl-N4-(5-isoquinolyl)-1,4-cyclohexanediamine]",Migration inhibition (%) ± SEM,"[1]; test compound 1 μM, 1 µM",69.9 ± 15.1%
CCCN[C@H]1CC[C@H](Nc2cccc3cnccc23)CC1 [260 (anti)],inhibition at 1 µM,[1]; [3],77.4 ± 14.4%
"CCCNC1CCC(Nc2ccc3[nH]ncc3c2)CC1 (stereo not drawn) [Example 243, N1-(1H-5-indazolyl)-N4-propyl-1,4-cyclohexanediamine]",inhibition at 3 µM,[1]; [5],82.8 ± 7.1%
"c1cc(NC2CCC(NC3CC3)CC2)c2ccncc2c1 (stereo not drawn) [262 (anti), N1-Cyclopropyl-N4-(5-isoquinolyl)-1,4-cyclohexanediamine]",inhibition at 0.3 µM,[1]; [4],24.4 ± 8.1%
same,inhibition at 1 µM,[1]; [3],82.5 ± 6.69%
"CCCC(C)CN1CCCC(Nc2ccc3[nH]ncc3c2)C1 (stereo not drawn) [Example 281, N-(1H-5-indazolyl)-N-[1-(2-methylpentyl)-3-piperidyl]amine]",inhibition at 3 µM,[1]; [5],100 ± 8.2%
"c1ccc(CCN[C@H]2CC[C@@H](Nc3ccc4[nH]ncc4c3)CC2)cc1 [259 (syn), N1-(1H-5-Indazolyl)-N4-phenylethyl-1,4-cyclohexanediamine]",inhibition at 3 µM,[1]; [5],85.3 ± 8.5%
"CCC(CC)CN1CCC(Nc2cccc3cnccc23)CC1 [Example 320, N-[1-(2-ethylbutyl)-4-piperidyl]-N-(5-isoquinolyl)amine]",inhibition at 1 µM,[1]; [3],82.9 ± 7%
COC(=O)C(c1ccc(F)c(F)c1)N1CCCC(Nc2ccc3[nH]ncc3c2)C1 (stereo not drawn) [Example 294],inhibition at 0.1 µM,"[1]; Homo sapiens, U-937, 1 h, test compound 0.1 μM, read-out: Migration inhibition (%) ± SEM",87.4 ± 6.4%
same,inhibition at 0.3 µM,[1]; [4],98.3 ± 1.4%
"Fc1cccc(Cl)c1CN1CCC(Nc2ccc3[nH]ncc3c2)CC1 [Example 150, N-[1-(2-Chloro-6-fluorobenzyl)-4-piperidyl]-N-(1H-5-indazolyl)amine]",IC50,[2],0.821 µM
"O=C(NCc1cccc2ccccc12)Nc1ccc2c(c1)C(=O)NC2=O [Example 85, N-(1,3-Dioxo-2,3-dihydro-1H-5-isoindolyl)-N′-(1-naphthylmethyl)urea]",IC50,[2],0.18 µM
"Clc1cc2c(cc1CN1CCC(Nc3ccc4[nH]ncc4c3)CC1)OCO2 [Example 144, N-{1-[(6-Chloro-1,3-benzodioxol-5-yl)methyl]-4-piperidyl}-N-(1H-5-indazolyl)amine]",IC50,[2],0.453 µM
"O=[N+]([O-])c1ccc(CN2CCC(Nc3ccc4[nH]ncc4c3)C2)cc1 (stereo not drawn) [Example 159, N-(1H-5-Indazolyl)-N-[1-(4-nitrobenzyl)tetrahydro-1H-3-pyrrolyl]amine]",IC50,[2],0.012 µM
"c1ccc(CNCCNc2ccc3[nH]ncc3c2)cc1 [Example 174, N1-Benzyl-N2-(1H-5-indazolyl)-1,2-ethanediamine]",IC50,[2],0.163 µM
"O=C(NCc1c(F)cccc1C(F)(F)F)Nc1ccc2[nH]ncc2c1 [Example 96, N-[2-fluoro-6-(trifluoromethyl)benzyl]-N′-(1H-5-indazolyl)urea]",IC50,[2],0.23 µM
O=C(Nc1ccncc1)Nc1c(F)cc(F)cc1Br [Example 57],IC50,[2],1.11 µM
"O=C(NCc1ccccc1[N+](=O)[O-])Nc1ccncc1 [Example 93, N-(2-Nitrobenzyl)-N′-(4-pyridyl)urea]",IC50,[2],12.5 µM
"Nc1cccc(CNC(=O)Nc2ccc3c(c2)C(=O)NC3=O)c1 [Example 112, N-(3-Aminobenzyl)-N′-(1,3-dioxo-2,3-dihydro-1H-5-isoindolyl)urea]",IC50,[2],0.31 µM

# Source: US7217722B2 (Kirin Beer Kabushiki Kaisha, priority 2000, dated 2007)
